In ChEMBL document CHEMBL5647694, “Novel orally bioavailable EZH1/2 dual inhibitors with greater antitumor efficacy than an EZH2 selective inhibitor” (Cancer Sci, 2017):

How the values were obtained:
[1] = molecular target: Macrophage colony-stimulating factor 1 receptor (Homo sapiens) (UniProt P07333); test: Inhibition of N-terminal GST-fused human FMS cytoplasmic domain (538 to 972 residues) expressed in baculovirus-infected Sf21 cells using Srctide as substrate at 1 uM in presence of ATP by Mobility shift assay
[2] = molecular target: Ephrin type-B receptor 4 (Homo sapiens) (UniProt P54760); test: Inhibition of N-terminal GST-fused human EPHB4 cytoplasmic domain (577 to 987 residues) expressed in baculovirus-infected Sf21 cells using Blk/Lyntide as substrate at 1 uM in presence of ATP by Mobility shift assay
Ephrin type-B receptor 4 (Homo sapiens), sequence (P54760 whole entry, the tested form may be a part): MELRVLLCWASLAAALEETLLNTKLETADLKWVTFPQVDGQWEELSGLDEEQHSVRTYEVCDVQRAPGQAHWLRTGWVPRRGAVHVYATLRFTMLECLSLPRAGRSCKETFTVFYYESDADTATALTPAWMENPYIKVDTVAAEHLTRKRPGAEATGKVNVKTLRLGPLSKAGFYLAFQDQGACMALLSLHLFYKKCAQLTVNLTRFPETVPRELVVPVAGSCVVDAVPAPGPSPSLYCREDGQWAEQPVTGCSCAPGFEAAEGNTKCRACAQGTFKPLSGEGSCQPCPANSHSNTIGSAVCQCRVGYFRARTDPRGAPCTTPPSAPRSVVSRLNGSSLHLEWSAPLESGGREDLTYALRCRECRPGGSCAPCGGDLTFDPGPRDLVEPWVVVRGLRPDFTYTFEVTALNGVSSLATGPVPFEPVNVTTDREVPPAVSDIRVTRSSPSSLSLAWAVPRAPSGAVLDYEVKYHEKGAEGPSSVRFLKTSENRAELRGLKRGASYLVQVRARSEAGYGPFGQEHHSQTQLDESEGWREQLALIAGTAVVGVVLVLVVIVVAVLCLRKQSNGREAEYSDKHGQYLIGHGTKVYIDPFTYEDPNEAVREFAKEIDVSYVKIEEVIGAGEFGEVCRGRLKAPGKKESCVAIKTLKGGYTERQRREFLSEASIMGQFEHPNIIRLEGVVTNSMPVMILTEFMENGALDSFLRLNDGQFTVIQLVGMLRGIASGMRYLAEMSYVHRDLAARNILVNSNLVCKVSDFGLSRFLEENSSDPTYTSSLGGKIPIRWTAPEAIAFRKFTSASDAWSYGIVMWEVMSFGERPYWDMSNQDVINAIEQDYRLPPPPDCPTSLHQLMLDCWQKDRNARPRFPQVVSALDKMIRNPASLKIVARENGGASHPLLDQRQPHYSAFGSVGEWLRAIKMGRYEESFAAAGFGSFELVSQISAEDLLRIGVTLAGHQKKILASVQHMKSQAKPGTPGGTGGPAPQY

[3] = molecular target: CDK9/cyclin T1 (Homo sapiens) (UniProt O60563+P50750); test: Inhibition of N-terminal GST-fused full length human CDK9 (1 to 372 residues)/human His-CyclinT1 (1 to 726 residues) expressed in baculovirus expression system using CDK9 substrate at 1 uM in presence of ATP by Mobility shift assay
[4] = molecular target: Macrophage-stimulating protein receptor (Homo sapiens) (UniProt Q04912); test: Inhibition of N-terminal GST-tagged human RON cytoplasmic domain (979 to 1400 residues) expressed in baculovirus-infected Sf21 cells using Srctide as substrate at 1 uM in presence of ATP by Mobility shift assay
[5] = molecular target: Serine/threonine-protein kinase SIK2 (Homo sapiens) (UniProt Q9H0K1); test: Inhibition of N-terminal GST-fused full length human QIK (1 to 926 residues) expressed in baculovirus expression system using AMARA peptide as substrate at 1 uM in presence of ATP by Mobility shift assay
[6] = molecular target: Casein kinase I isoform epsilon (Homo sapiens) (UniProt P49674); test: Inhibition of N-terminal GST-fused human CK1-epsilon catalytic domain (1 to 348 residues) expressed in baculovirus expression system using CKtide as substrate at 1 uM in presence of ATP by Mobility shift assay
Casein kinase I isoform epsilon (Homo sapiens), sequence (P49674 whole entry, looked up, the tested form may be a part, canonical isoform): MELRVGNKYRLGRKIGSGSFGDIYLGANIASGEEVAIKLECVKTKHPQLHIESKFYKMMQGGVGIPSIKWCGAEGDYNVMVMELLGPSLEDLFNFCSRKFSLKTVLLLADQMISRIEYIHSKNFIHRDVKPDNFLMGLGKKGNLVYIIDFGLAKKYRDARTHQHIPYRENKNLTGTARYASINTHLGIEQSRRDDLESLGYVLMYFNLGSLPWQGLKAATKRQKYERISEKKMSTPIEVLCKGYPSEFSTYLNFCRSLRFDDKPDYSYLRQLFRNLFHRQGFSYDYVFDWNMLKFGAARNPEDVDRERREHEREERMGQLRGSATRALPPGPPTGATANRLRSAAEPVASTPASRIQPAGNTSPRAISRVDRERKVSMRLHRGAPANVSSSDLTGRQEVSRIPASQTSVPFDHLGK

[7] = molecular target: Serine/threonine-protein kinase 38 (Homo sapiens) (UniProt Q15208); test: Inhibition of N-terminal GST-fused full length human NDR1 (1 to 465 residues) expressed in baculovirus expression system using SGKtide as substrate at 1 uM in presence of ATP by Mobility shift assay
Serine/threonine-protein kinase 38 (Homo sapiens), sequence (Q15208 2-465 limits assumed): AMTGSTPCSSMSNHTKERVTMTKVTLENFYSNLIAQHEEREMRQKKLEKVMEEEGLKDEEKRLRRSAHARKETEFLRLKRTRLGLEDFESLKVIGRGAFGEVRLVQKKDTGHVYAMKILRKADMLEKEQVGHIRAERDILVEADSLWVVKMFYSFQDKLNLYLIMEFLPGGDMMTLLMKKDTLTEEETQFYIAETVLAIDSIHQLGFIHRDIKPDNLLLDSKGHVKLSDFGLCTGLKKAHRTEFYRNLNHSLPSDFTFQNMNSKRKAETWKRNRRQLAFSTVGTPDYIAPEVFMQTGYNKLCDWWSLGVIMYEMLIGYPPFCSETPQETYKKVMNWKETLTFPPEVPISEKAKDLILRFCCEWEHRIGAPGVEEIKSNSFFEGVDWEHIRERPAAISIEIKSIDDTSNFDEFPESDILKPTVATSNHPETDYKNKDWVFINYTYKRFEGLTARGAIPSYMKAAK

[8] = molecular target: Ephrin type-A receptor 7 (Homo sapiens) (UniProt Q15375); test: Inhibition of N-terminal GST-fused human EPHA7 cytoplasmic domain (595 to 998 residues) expressed in baculovirus-infected Sf21 cells using Blk/Lyntide as substrate at 1 uM in presence of ATP by Mobility shift assay
[9] = molecular target: Non-receptor tyrosine-protein kinase TNK1 (Homo sapiens) (UniProt Q13470); test: Inhibition of N-terminal GST-tagged human TNK1 catalytic domain (106 to 390 residues) expressed in baculovirus-infected Sf21 cells using CSKtide as substrate at 1 uM in presence of ATP by Mobility shift assay
[10] = molecular target: Ribosomal protein S6 kinase alpha-5 (Homo sapiens) (UniProt O75582); test: Inhibition of N-terminal GST-fused full length human MSK1 (1 to 802 residues) expressed in baculovirus expression system using Crosstide as substrate at 1 uM in presence of ATP by Mobility shift assay
[11] = molecular target: Serine/threonine-protein kinase PAK 4 (Homo sapiens) (UniProt O96013); test: Inhibition of N-terminal GST-fused full length human PAK4 (1 to 591 residues) expressed in baculovirus expression system using SGKtide as substrate at 1 uM in presence of ATP by Mobility shift assay
Serine/threonine-protein kinase PAK 4 (Homo sapiens), sequence (O96013 whole entry, looked up, the tested form may be a part): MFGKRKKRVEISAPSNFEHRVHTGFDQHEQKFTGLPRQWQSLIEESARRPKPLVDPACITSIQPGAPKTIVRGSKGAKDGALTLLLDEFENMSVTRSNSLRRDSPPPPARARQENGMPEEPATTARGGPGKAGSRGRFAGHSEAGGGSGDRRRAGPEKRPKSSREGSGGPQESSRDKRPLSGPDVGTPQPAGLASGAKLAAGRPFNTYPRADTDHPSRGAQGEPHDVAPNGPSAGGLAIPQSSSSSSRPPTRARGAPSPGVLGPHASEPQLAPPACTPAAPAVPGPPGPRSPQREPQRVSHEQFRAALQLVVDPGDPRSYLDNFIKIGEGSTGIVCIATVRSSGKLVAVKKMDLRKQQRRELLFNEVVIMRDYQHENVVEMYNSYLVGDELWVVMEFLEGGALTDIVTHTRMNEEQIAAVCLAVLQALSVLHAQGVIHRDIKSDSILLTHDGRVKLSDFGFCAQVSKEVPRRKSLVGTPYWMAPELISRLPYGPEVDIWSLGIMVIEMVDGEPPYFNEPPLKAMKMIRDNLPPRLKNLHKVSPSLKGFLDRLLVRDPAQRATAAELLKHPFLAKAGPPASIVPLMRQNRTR

[12] = molecular target: Protein-tyrosine kinase 6 (Homo sapiens) (UniProt Q13882); test: Inhibition of N-terminal GST-fused full length human BRK (2 to 451 residues) expressed in baculovirus-infected Sf21 cells using Blk/Lyntide as substrate at 1 uM in presence of ATP by Mobility shift assay
[13] = molecular target: Serine/threonine-protein kinase BRSK1 (Homo sapiens) (UniProt Q8TDC3); test: Inhibition of N-terminal GST-tagged full length human BRSK1 (1 to 778 residues) expressed in baculovirus-infected Sf21 cells using CHKtide as substrate at 1 uM in presence of ATP by Mobility shift assay
[14] = molecular target: Protein-tyrosine kinase 2-beta (Homo sapiens) (UniProt Q14289); test: Inhibition of N-terminal GST-tagged full length human PYK2 (1 to 967 residues) expressed in baculovirus-infected Sf21 cells using Blk/Lyntide as substrate at 1 uM in presence of ATP by Mobility shift assay
[15] = molecular target: Eukaryotic elongation factor 2 kinase (Homo sapiens) (UniProt O00418); test: Inhibition of N-terminal GST-fused full length human EEF2K (1 to 725 residues) expressed in Escherichia coli expression system using EEF2Ktide as substrate at 1 uM in presence of ATP by Mobility shift assay
Eukaryotic elongation factor 2 kinase (Homo sapiens), sequence (O00418 whole entry, the tested form may be a part): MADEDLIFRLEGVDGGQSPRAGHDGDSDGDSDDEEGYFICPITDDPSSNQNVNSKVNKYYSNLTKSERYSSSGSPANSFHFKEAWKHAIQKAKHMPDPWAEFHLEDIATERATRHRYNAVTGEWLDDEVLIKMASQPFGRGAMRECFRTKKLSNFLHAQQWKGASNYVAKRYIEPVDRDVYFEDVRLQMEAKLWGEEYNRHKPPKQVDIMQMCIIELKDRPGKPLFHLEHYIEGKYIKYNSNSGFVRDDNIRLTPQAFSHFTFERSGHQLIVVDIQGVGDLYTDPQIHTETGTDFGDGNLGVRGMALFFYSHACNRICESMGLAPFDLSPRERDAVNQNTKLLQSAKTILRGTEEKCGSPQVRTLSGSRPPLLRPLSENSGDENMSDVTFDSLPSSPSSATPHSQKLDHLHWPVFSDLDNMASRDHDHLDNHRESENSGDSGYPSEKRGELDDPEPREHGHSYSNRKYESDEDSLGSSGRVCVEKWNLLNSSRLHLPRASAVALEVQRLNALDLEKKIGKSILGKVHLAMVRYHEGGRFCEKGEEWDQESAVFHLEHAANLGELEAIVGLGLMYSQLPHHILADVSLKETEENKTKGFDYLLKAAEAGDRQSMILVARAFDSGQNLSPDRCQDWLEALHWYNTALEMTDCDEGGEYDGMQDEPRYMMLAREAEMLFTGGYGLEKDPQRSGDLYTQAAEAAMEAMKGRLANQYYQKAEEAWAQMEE

[16] = molecular target: Glycogen synthase kinase-3 beta (Homo sapiens) (UniProt P49841); test: Inhibition of N-terminal GST-fused full length human GSK3-beta (1 to 420 residues) expressed in baculovirus expression system using CREBtide-p as substrate at 1 uM in presence of ATP by Mobility shift assay
Glycogen synthase kinase-3 beta (Homo sapiens), sequence (P49841 whole entry, looked up, the tested form may be a part): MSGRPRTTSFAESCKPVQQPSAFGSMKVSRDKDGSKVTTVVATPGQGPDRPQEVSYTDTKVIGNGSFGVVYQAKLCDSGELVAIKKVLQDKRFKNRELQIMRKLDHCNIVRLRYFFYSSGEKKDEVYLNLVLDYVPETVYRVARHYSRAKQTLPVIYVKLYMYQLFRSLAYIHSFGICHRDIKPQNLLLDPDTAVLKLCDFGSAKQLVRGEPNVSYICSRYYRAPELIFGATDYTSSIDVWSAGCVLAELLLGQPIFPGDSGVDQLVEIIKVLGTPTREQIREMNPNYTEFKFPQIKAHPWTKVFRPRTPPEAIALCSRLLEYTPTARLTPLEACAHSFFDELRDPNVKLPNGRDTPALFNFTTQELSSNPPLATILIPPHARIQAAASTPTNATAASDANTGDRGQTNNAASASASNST

[17] = molecular target: Mitogen-activated protein kinase 12 (Homo sapiens) (UniProt P53778); test: Inhibition of N-terminal GST-fused full length human p38gamma (1 to 367 residues) expressed in Escherichia coli expression system using Modified Erktide as substrate at 1 uM in presence of ATP by Mobility shift assay
Mitogen-activated protein kinase 12 (Homo sapiens), sequence (P53778 whole entry, the tested form may be a part): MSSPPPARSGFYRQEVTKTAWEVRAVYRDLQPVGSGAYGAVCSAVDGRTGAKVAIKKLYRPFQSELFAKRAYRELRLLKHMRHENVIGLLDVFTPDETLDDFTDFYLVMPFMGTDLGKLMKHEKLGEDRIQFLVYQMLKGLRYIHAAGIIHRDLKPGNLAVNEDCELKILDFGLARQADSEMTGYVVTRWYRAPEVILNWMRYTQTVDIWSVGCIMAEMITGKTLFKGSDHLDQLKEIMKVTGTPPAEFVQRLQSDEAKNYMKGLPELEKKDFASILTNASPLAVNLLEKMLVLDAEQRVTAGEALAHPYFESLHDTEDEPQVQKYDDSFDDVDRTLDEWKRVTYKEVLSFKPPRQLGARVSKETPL

[18] = molecular target: Hepatocyte growth factor receptor (Homo sapiens) (UniProt P08581); test: Inhibition of N-terminal GST-tagged human MET cytoplasmic domain (956 to 1390 residues ) expressed in baculovirus-infected Sf21 cells using Srctide as substrate at 1 uM in presence of ATP by Mobility shift assay
[19] = molecular target: Serine/threonine-protein kinase Chk2 (Homo sapiens) (UniProt O96017); test: Inhibition of N-terminal GST-fused full length human CHK2 (1 to 543 residues) expressed in baculovirus expression system using CHKtide as substrate at 1 uM in presence of ATP by Mobility shift assay
[20] = molecular target: Mitogen-activated protein kinase 11 (Homo sapiens) (UniProt Q15759); test: Inhibition of N-terminal GST-fused full length human p38beta (1 to 364 residues) expressed in Escherichia coli expression system using Modified Erktide as substrate at 1 uM in presence of ATP by Mobility shift assay
Mitogen-activated protein kinase 11 (Homo sapiens), sequence (Q15759 whole entry, the tested form may be a part): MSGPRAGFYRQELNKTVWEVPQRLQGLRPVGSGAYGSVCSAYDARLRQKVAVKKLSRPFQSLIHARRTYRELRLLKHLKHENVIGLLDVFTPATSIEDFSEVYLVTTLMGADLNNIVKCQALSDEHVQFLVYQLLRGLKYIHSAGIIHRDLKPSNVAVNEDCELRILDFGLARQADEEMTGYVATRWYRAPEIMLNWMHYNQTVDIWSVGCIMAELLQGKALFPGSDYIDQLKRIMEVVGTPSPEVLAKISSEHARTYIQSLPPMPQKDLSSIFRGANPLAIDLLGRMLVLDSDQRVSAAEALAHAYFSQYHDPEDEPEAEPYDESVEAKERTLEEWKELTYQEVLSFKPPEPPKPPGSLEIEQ

[21] = molecular target: SRSF protein kinase 3 (Homo sapiens) (UniProt Q9UPE1); test: Inhibition of N-terminal GST-fused full length human MSSK1 (1 to 567 residues) expressed in baculovirus expression system using DYRKtide-F as substrate at 1 uM in presence of ATP by Mobility shift assay
[22] = molecular target: Dual specificity tyrosine-phosphorylation-regulated kinase 1B (Homo sapiens) (UniProt Q9Y463); test: Inhibition of N-terminal GST-fused full length human DYRK1B (1 to 629 residues) expressed in baculovirus expression system using DYRKtide-F as substrate at 1 uM in presence of ATP by Mobility shift assay
Dual specificity tyrosine-phosphorylation-regulated kinase 1B (Homo sapiens), sequence (Q9Y463 whole entry, looked up, the tested form may be a part, canonical isoform): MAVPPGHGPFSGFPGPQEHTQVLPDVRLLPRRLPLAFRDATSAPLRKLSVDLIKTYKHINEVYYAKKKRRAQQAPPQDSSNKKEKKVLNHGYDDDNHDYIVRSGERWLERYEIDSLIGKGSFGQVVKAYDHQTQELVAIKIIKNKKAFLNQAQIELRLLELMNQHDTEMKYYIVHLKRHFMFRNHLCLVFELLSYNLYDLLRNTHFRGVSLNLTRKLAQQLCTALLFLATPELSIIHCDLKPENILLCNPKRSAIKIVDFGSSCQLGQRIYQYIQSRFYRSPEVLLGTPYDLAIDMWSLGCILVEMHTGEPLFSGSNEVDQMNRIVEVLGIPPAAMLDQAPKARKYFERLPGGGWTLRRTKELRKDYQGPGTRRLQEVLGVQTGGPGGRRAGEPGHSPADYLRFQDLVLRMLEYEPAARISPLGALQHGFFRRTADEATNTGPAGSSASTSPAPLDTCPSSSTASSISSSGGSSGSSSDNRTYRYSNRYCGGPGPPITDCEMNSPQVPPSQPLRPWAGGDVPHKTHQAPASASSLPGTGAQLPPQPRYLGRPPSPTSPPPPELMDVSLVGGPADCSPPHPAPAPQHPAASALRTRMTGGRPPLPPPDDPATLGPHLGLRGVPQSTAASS

[23] = molecular target: Casein kinase I isoform gamma-3 (Homo sapiens) (UniProt Q9Y6M4); test: Inhibition of N-terminal GST-fused full length human CK1gamma3 (1 to 447 residues) expressed in baculovirus expression system using CKtide as substrate at 1 uM in presence of ATP by Mobility shift assay

Structure (SMILES)	inhibition [1] [%]	inhibition [2] [%]	inhibition [3] [%]	inhibition [4] [%]	inhibition [5] [%]	inhibition [6] [%]	inhibition [7] [%]	inhibition [8] [%]	inhibition [9] [%]	inhibition [10] [%]	inhibition [11] [%]	inhibition [12] [%]	inhibition [13] [%]	inhibition [14] [%]	inhibition [15] [%]	inhibition [16] [%]	inhibition [17] [%]	inhibition [18] [%]	inhibition [19] [%]	inhibition [20] [%]	also measured
Cc1cc(C)c(CNC(=O)c2cc(Br)c3c(c2C)O[C@@](C)([C@H]2CC[C@H](N(C)C)CC2)O3)c(=O)[nH]1	-0.4	-6.1	-5.3	-4.9	-0.5	1.5	-2.6	-3.3	-3.4	1.4	-1.8	-3.9	-1.9	3	-3	-3.3	-1.6	-2.1	0.7	-3.1	inhibition [21]: -6.3%; inhibition [22]: 2.7%; inhibition [23]: 1.1%
Cc1cc(C)c(CNC(=O)c2cc(Cl)c3c(c2C)O[C@@](C)([C@H]2CC[C@H](N(C)C)CC2)O3)c(=O)[nH]1 [VALEMETOSTAT]	1.3	-4.7	4.3	-3.5	-1.9	-2.2	-0.5	-1.9	-6.8	0.4	0.1	-3	-3.6	2.8	-0.3	-7.1	-3	-5	-2.2	-5.6	inhibition [21]: -5.4%; inhibition [22]: -9.8%; inhibition [23]: 0.5%
